# Data taken from patent US6470226B1 (priority 1997, dated 2002).
# System: voltage dependent calcium channels
# Type: cell-based, chick
Compound,effect on voltage dependent calcium channels (maximum current induced by depolarizing voltage steps),reversibility of effect (washout)
N=C(N)NC(=O)c1nc(Cl)c(N)nc1N [amiloride],no effect on calcium ion channels,–
O=C1NC(=O)C(c2ccccc2)(c2ccccc2)N1 [phenytoin],no effect on calcium ion channels,–
COC(=O)C1=C(C)NC(C)=C([N+](=O)[O-])C1c1ccccc1C(F)(F)F (stereo not drawn) [Bay-k 8644],stimulates L-type calcium channels,reversibly
w-conotoxin MVIIA,high affinity for N-type calcium channels,irreversible
